Source: ChEMBL document CHEMBL1201862, “PubChem BioAssay data set” (2004)
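Assay format: 96-well plates, 48-hour exposure. GI50 marks 50% less growth.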 Activity calls are given as the source filed them. No stated cut-off is given here; in the data, active = GI50 up to about 1.1 µM and inactive = higher.

Columns and labels:
Assay in all cases: DTP human tumour cell line panel, 48 h
SK-MEL-2 = system: SK-MEL-2
RXF 393 = system: RXF 393
UACC-62 = system: UACC-62
ACHN = system: ACHN
SK-MEL-28 = system: SK-MEL-28
EKVX = system: EKVX
SNB-75 = system: SNB-75
HCT-15 = system: HCT-15
SF-268 = system: SF-268
UACC-257 = system: UACC-257
SK-OV-3 = system: SK-OV-3
TK-10 = system: TK-10
NCI-H460 = system: NCI-H460
CCRF-CEM = system: CCRF-CEM
SR = system: SR
MCF7 = system: MCF7
Hs-578T = system: Hs-578T
MDA-MB-435 = system: MDA-MB-435
T47D = system: T47D

C/C(=N\NC(=O)CC(=O)N(C(=O)c1ccc(Cl)cc1)c1ccc(C)cc1)c1ccccc1O
GI50 (SK-MEL-2): > 100 µM (inactive) | GI50 (RXF 393): 18.3 µM (inactive) | GI50 (UACC-62): > 100 µM (inactive) | GI50 (ACHN): 45.6 µM (inactive) | GI50 (SK-MEL-28): 61.8 µM (inactive) | GI50 (EKVX): 6.79 µM (inactive) | GI50 (SNB-75): 18.2 µM (inactive) | GI50 (HCT-15): 4.88 µM | GI50 (SF-268): 28.1 µM (inactive) | GI50 (UACC-257): > 100 µM (inactive) | GI50 (SK-OV-3): > 100 µM (inactive) | GI50 (TK-10): 17.6 µM (inactive) | GI50 (NCI-H460): 21.4 µM (inactive) | GI50 (CCRF-CEM): 5.45 µM (inactive)

COc1cc(C(C)O)c[n+](CCc2c[nH]c3ccccc23)c1 (centres undefined)
GI50 (SK-MEL-2): > 100 µM (inactive) | GI50 (RXF 393): > 100 µM (inactive) | GI50 (UACC-62): > 100 µM (inactive) | GI50 (SR): > 100 µM (inactive) | GI50 (ACHN): > 100 µM (inactive) | GI50 (EKVX): 48.3 µM (inactive) | GI50 (SNB-75): 89.9 µM (inactive) | GI50 (HCT-15): > 100 µM | GI50 (SF-268): 27.1 µM (inactive) | GI50 (UACC-257): > 100 µM (inactive) | GI50 (TK-10): > 100 µM (inactive) | GI50 (NCI-H460): > 100 µM (inactive) | GI50 (CCRF-CEM): > 100 µM (inactive)

COc1cccc(C=C(C#N)C#N)c1OC
GI50 (RXF 393): > 100 µM (inactive) | GI50 (UACC-62): > 100 µM (inactive) | GI50 (SR): > 100 µM (inactive) | GI50 (MCF7): > 100 µM (inactive) | GI50 (ACHN): > 100 µM (inactive) | GI50 (SK-MEL-28): > 100 µM (inactive) | GI50 (EKVX): > 100 µM (inactive) | GI50 (SNB-75): 43.2 µM (inactive) | GI50 (HCT-15): > 100 µM | GI50 (SF-268): > 100 µM (inactive) | GI50 (UACC-257): > 100 µM (inactive) | GI50 (SK-OV-3): 12.3 µM (inactive) | GI50 (TK-10): > 100 µM (inactive) | GI50 (NCI-H460): > 100 µM (inactive) | GI50 (CCRF-CEM): 83.6 µM (inactive)

CSc1ncnc2c1ncn2CCC#N
GI50 (RXF 393): > 100 µM (inactive) | GI50 (SR): > 100 µM (inactive) | GI50 (MCF7): > 100 µM (inactive) | GI50 (ACHN): > 100 µM (inactive) | GI50 (SK-MEL-28): > 100 µM (inactive) | GI50 (Hs-578T): > 100 µM (inactive) | GI50 (EKVX): > 100 µM (inactive) | GI50 (MDA-MB-435): > 100 µM (inactive) | GI50 (SNB-75): > 100 µM (inactive) | GI50 (SF-268): > 100 µM (inactive) | GI50 (UACC-257): > 100 µM (inactive) | GI50 (SK-OV-3): > 100 µM (inactive) | GI50 (TK-10): > 100 µM (inactive) | GI50 (NCI-H460): > 100 µM (inactive) | GI50 (CCRF-CEM): > 100 µM (inactive)

CC(=O)OC1(C)C=CC(=O)C=C1
GI50 (SK-MEL-2): 28.2 µM (inactive) | GI50 (UACC-62): 17.1 µM (inactive) | GI50 (SR): 32.7 µM (inactive) | GI50 (MCF7): 20.4 µM (inactive) | GI50 (ACHN): 17.5 µM (inactive) | GI50 (SK-MEL-28): 23.6 µM (inactive) | GI50 (Hs-578T): 61.7 µM (inactive) | GI50 (EKVX): 62.5 µM (inactive) | GI50 (MDA-MB-435): 29.9 µM (inactive) | GI50 (SNB-75): 84.1 µM (inactive) | GI50 (HCT-15): 18 µM | GI50 (SF-268): 31 µM (inactive) | GI50 (UACC-257): 17.1 µM (inactive) | GI50 (SK-OV-3): > 100 µM (inactive) | GI50 (TK-10): 22.5 µM (inactive) | GI50 (NCI-H460): 25.9 µM (inactive) | GI50 (CCRF-CEM): 44.1 µM (inactive)

Cn1c(=O)c(C(=O)NC(=O)OCc2ccccc2)cn(CCSCCOC(=O)NCCCCCCNC(=O)OCCSCCn2cc(C(=O)NC(=O)OCc3ccccc3)c(=O)n(C)c2=O)c1=O
GI50 (SK-MEL-2): > 100 µM (inactive) | GI50 (RXF 393): 33.7 µM (inactive) | GI50 (UACC-62): > 100 µM (inactive) | GI50 (ACHN): > 100 µM (inactive) | GI50 (SK-MEL-28): > 100 µM (inactive) | GI50 (EKVX): > 100 µM (inactive) | GI50 (SNB-75): 17.8 µM (inactive) | GI50 (HCT-15): > 100 µM | GI50 (SF-268): 84.9 µM (inactive) | GI50 (TK-10): > 100 µM (inactive) | GI50 (NCI-H460): > 100 µM (inactive) | GI50 (CCRF-CEM): > 100 µM (inactive)

C(=C\c1ccco1)/c1cccc(/C=C/c2ccco2)n1
GI50 (RXF 393): > 50 µM (inactive) | GI50 (UACC-62): > 50 µM (inactive) | GI50 (SR): 33.6 µM (inactive) | GI50 (MCF7): 0.283 µM (active) | GI50 (ACHN): > 50 µM (inactive) | GI50 (SK-MEL-28): > 50 µM (inactive) | GI50 (Hs-578T): > 50 µM (inactive) | GI50 (EKVX): > 50 µM (inactive) | GI50 (MDA-MB-435): > 50 µM (inactive) | GI50 (SNB-75): 13.2 µM (inactive) | GI50 (HCT-15): > 50 µM | GI50 (SF-268): > 50 µM (inactive) | GI50 (UACC-257): > 50 µM (inactive) | GI50 (SK-OV-3): > 50 µM (inactive) | GI50 (TK-10): > 50 µM (inactive) | GI50 (NCI-H460): > 50 µM (inactive) | GI50 (CCRF-CEM): > 50 µM (inactive)

CCOC(=O)c1cn(-c2ccccc2)c(=S)n2c1nc1ccccc12
GI50 (SK-MEL-2): 32.9 µM (inactive) | GI50 (RXF 393): 54.8 µM (inactive) | GI50 (UACC-62): 53.8 µM (inactive) | GI50 (SR): 13.6 µM (inactive) | GI50 (MCF7): 35.5 µM (inactive) | GI50 (ACHN): 56.1 µM (inactive) | GI50 (SK-MEL-28): 28.2 µM (inactive) | GI50 (EKVX): 32.8 µM (inactive) | GI50 (MDA-MB-435): 32.5 µM (inactive) | GI50 (T47D): 80 µM (inactive) | GI50 (SNB-75): > 71.6 µM (inactive) | GI50 (HCT-15): 41.5 µM | GI50 (SF-268): 21.7 µM (inactive) | GI50 (UACC-257): 40 µM (inactive) | GI50 (SK-OV-3): > 100 µM (inactive) | GI50 (TK-10): 96.8 µM (inactive) | GI50 (NCI-H460): 61.4 µM (inactive) | GI50 (CCRF-CEM): 5.53 µM (inactive)

Cc1ccc(S(=O)(=O)n2c3c(c4ccccc42)CCN2C[C@H]([C@H](C)Br)CC[C@@H]32)cc1
GI50 (SK-MEL-2): > 100 µM (inactive) | GI50 (RXF 393): > 100 µM (inactive) | GI50 (UACC-62): > 100 µM (inactive) | GI50 (SR): 4.01 µM (inactive) | GI50 (MCF7): 91.8 µM (inactive) | GI50 (ACHN): > 100 µM (inactive) | GI50 (SK-MEL-28): > 100 µM (inactive) | GI50 (EKVX): > 100 µM (inactive) | GI50 (MDA-MB-435): 32.1 µM (inactive) | GI50 (T47D): > 100 µM (inactive) | GI50 (SNB-75): > 100 µM (inactive) | GI50 (HCT-15): > 100 µM | GI50 (SF-268): > 100 µM (inactive) | GI50 (UACC-257): > 100 µM (inactive) | GI50 (SK-OV-3): > 100 µM (inactive) | GI50 (TK-10): > 100 µM (inactive) | GI50 (NCI-H460): > 100 µM (inactive) | GI50 (CCRF-CEM): 86.7 µM (inactive)
